According to patent publication US12704521B2, “On-site rapid quantification of tetrahydrocannabinol” (The General Hospital Corporation, priority 2020, dated 2026):

Experiments:
[1] = EPOCH test of oral fluid samples from cannabis users; assay type: in vivo, human
Source text: Informed consent was obtained from all subjects (cannabis smoker […]). Cannabis users were asked to take saliva samples right after cannabis smoking. Specifically, they were instructed to take a disposable swab (diameter, 1 cm; length, 1.5 cm) into the mouth and roll it for about one minute. The swab was then placed into the sample processing kit. Control samples were collected in the same manner from volunteers who self-declared no history of cannabis use. For the time-course monitoring, three cannabis smokers collected saliva samples hourly after their last smoking. Cylindrical saliva swabs were purchased (SalivaBio Oral Swab, Salimetrics, USA). These swabs were cut in the middle of their height to fit into the sample processing kit. Each halved swab collected about 0.5 mL of saliva.
Next, EPOCH was used for onsite THC detection. Oral fluid samples from recreational cannabis users (40 cannabis smokers and three THC jelly users) were collected within 10 minutes of product consumption and then tested. As a control, oral fluid samples were also assessed from non-cannabis users (13 traditional tobacco smokers and 30 non-smokers) without a history of cannabis use. […] We observed no significant difference between male and female subjects in any of the cohorts (P>0.05, two-sided Mann-Whitney test; FIG. 5C).
We also monitored how THC levels changed over time after cannabis smoking. In this case, oral fluid samples were collected hourly after the inhalation and subjected to the EPOCH tests.

[2] = test system: AuNPAb (THC antibody-coated gold nanoparticles); assay: isothermal titration calorimetry of binding to AuNPAb

CCCCCc1cc(O)c2c(c1)OC(C)(C)[C@@H]1CCC(C)=C[C@@H]21 [THC, Δ^9-tetrahydrocannabinol]
oral THC concentration in all cannabis-user samples ([1]; 43 cannabis users shortly after consumption, versus regulatory guideline): > 1 ng/mL
half-life of THC in saliva ([1]; after cannabis smoking, hourly samples, three users, single-phase exponential decay): 1.4 h
oral THC concentration (average/median) ([1]; cannabis smokers, oral fluid collected within 10 minutes of consumption): 478 ng/mL
half-life ([1]; human, saliva, inhaled, after cannabis smoking, hourly samples, three users, single-phase exponential decay, read-out: half-life of THC in saliva (converted)): 84 min
concentration at 6 h ([1]; human, saliva, po, six hours after cannabis smoking, read-out: oral THC level): > 1 ng/mL
association constant Ka with AuNPAb [2]: 0.074 nM⁻¹
